Measured values reported in patent publication US20130115293A1, “Therapeutic Polymeric Nanoparticles Comprising Corticosteroids and Methods of Making and Using Same” (priority 2009, published 2013).
Values joined by “and” are separate entries in the source; they are usually repeats but may differ in a detail not shown here. Equal values may be shown once. Read-outs that look alike come from different tables or passages of the source.

Columns and labels:
[1] = Rat study: pharmacokinetics, plasma levels by LCMS; assay type: in vivo, Rats (male Sprague Dawley); conditions: single intravenous dose 0.5 mg/kg; for AUC(0-inf) / clearance / Cmax / Vd / half-life: male, Sprague Dawley, iv, 0.5 mg/kg
Experimental: Rats (male Sprague Dawley, approximately 300 g with jugular cannulae) were given a single intravenous dose of 0.5 mg/kg of budesonide or passively targeted nanoparticles (PTNP) encapsulating budesonide (prepared as in Example 7) at time=0. At various times after dosing, blood samples were collected from the jugular cannulae into tubes containing lithium heparin, and plasma was prepared. Plasma levels were determined by extraction of the budesonide from plasma followed by LCMS analysis.

indomethacin-induced IBD = experiment: Rat model of inflammatory bowel disease (indomethacin induced); assay type: in vivo, rats; conditions: for intestinal score decrease towards normal: days -1 to 3, scored day 4; for small intestine weight decrease toward normal: days -1 to 3, weighed day 4
Experimental: Budesonide and Budesonide PTNP were compared in a model of inflammatory bowel disease (IBD) as an efficacy model of inflammation. In this model, female rats were given two subcutaneous doses of 8 mg/kg indomethacin at 24 hour intervals to induce lesions resembling those occurring in Crohn's disease in the small intestine. Intravenous daily treatment with vehicle, budesonide (0.02, 0.2 or 2 mg/kg) or budesonide PTNP (0.02, 0.2 or 2 mg/kg) or oral daily treatment with Dexamethasone (0.1 mg/kg) was initiated one day before indomethacin treatment (day −1) and continued for 5 total days (days −1 to 3). Animals were euthanized on day 4, and a 10 cm area at risk in the small intestine was scored for gross pathology and weighed.
Using a disease scoring system in which a score of 0 is normal, and a score of 5 indicates death due to IBD symptoms, normal rats have an average score of 0, and an average intestinal weight of 0.488 g.

[2] = Solubility of drug in beta cyclodextrin (BCD) release medium; assay type: physicochemical
Experimental: For in vitro release studies using the procedure of Example 3, beta cyclodextrin (BCD) was evaluated as a solubilizer for maintaining sink conditions during the release of ciclesonide into the release medium.

## CCCC1O[C@@H]2C[C@H]3[C@@H]4CCC5=CC(=O)C=C[C@]5(C)[C@H]4[C@@H](O)C[C@]3(C)[C@]2(C(=O)CO)O1 (some centres unmarked) [Budesonide, budesonide]
[1]; average of 6 rats, read-out: AUCinf (hr * ng/mL), Avg
  AUC(0-inf): 148 ng·h/mL
[1]; average of 6 rats, read-out: Cl (mL/hr/kg), Avg (converted)
  clearance: 3480 mL/h/kg
[1]; average of 6 rats, read-out: Cmax (ng/mL), Avg
  Cmax: 286 ng/mL
[1]; average of 6 rats, read-out: Vz (mL/kg), Avg
  Vd: 3740 mL/kg
[1]; average of 6 rats, read-out: t1/2 (hr), Avg (converted)
  half-life: 0.75 h
[1]; individual animals, read-out: AUCinf (hr * ng/mL), individual rats
  AUC(0-inf): 159 ng·h/mL
[1]; individual animals, read-out: Cl (mL/hr/kg), individual rats (converted)
  clearance: 3140 mL/h/kg
[1]; individual animals, read-out: Cmax (ng/mL), individual rats
  Cmax: 324 ng/mL
[1]; individual animals, read-out: Vz (mL/kg), individual rats
  Vd: 3310 mL/kg
[1]; individual animals, read-out: t1/2 (hr), individual rats (converted)
  half-life: 0.73 h
[1]; individual animals
  Cl (mL/hr/kg), individual rats: 3966 mL/h/kg and 4611 mL/h/kg and 3104 mL/h/kg and 3151 mL/h/kg and 2892 mL/h/kg
  Cmax (ng/mL), individual rats: 241 ng/mL and 226 ng/mL and 337 ng/mL and 306 ng/mL and 279 ng/mL
  Vz (mL/kg), individual rats: 4291 mL/kg and 4937 mL/kg and 3104 mL/kg and 3191 mL/kg and 3627 mL/kg
indomethacin-induced IBD; 0.02 mg/kg intravenous daily
  intestinal score decrease towards normal: 52%
  small intestine weight decrease toward normal: 52%
indomethacin-induced IBD; 0.2 mg/kg intravenous daily
  intestinal score decrease towards normal: 53%
  small intestine weight decrease toward normal: 53%
indomethacin-induced IBD; 2 mg/kg intravenous daily
  intestinal score decrease towards normal: 59%
  small intestine weight decrease toward normal: 59%

## C[C@@H]1C[C@H]2[C@@H]3CCC4=CC(=O)C=C[C@]4(C)[C@@]3(Cl)[C@@H](O)C[C@]2(C)[C@@]1(OC(=O)c1ccco1)C(=O)CCl [MOM, Mometasone Furoate]
[2]; 10% wt BCD in PBS
  [MOM]: 93.5 µg/mL
[2]; […] wt BCD in PBS
  [MOM]: 33.42 µg/mL

## CC(C)C(=O)OCC(=O)[C@@]12O[C@H](C3CCCCC3)O[C@@H]1C[C@H]1[C@@H]3CCC4=CC(=O)C=C[C@]4(C)[C@H]3[C@@H](O)C[C@@]12C [ciclesonide]
[2]; 10% wt BCD
  [ciclesonide]: 133 µg/mL
[2]; […] wt BCD
  [ciclesonide]: 17.58 µg/mL
